# Measurements reported in patent publication US20150079206A1, “TRIGONELLINE AS A MUSCLE STIMULANT” (DSM IP ASSETS B.V., priority 2009, published 2015).
# Test system: Female C57B1/6 mice
# Assay: Maximal endurance test (treadmill) in non-trained animals
# Format: in vivo, mouse
# Procedure: To test the effect of trigonelline in non-trained animals, we performed a maximal endurance test after a treatment period of three weeks.
# Female C57B1/6 mice were delivered at a weight of 18-20 g and acclimatized to the facilities for a period of one week. At the beginning of the study the animals were randomized into two groups (10 animals per group). All mice were housed separately and had access to feed and water ad libidum. Animals were treated for three weeks by gavage with trigonelline-hydrochloride at a daily dosage of 300 mg/kg/BW and the control group received vehicle.
# For acclimatization, animals were placed on the treadmill for 5 minutes after two weeks. The maximal endurance test was performed two day before the section of the animals.
smiles,measurement,setting,value
"C[n+]1cccc(C(=O)[O-])c1 [Trigonelline, trigonelline monohydrate]",skeletal muscle mass in untrained mice (in words),3 weeks of supplementation,no effect
same,endurance of untrained animals (in words),"3 weeks of supplementation, monohydrate",not influenced
same,"wet weight of the gastrocnemius muscle, treated vs control (in words)","untrained mice, three weeks of supplementation, FIG. 4",equal in both groups
